Reference: patent EP2070549A1, “THERAPEUTIC AGENT FOR ACCELERATION OF SPINAL NERVE REPAIR COMPRISING DESACYL GHRELIN OR DERIVATIVE THEREOF AS ACTIVE INGREDIENT” (University of Miyazaki, priority 2006, dated 2008)

Columns and labels:
[1] = target: des-acyl ghrelin specific binding sites in membrane fractions of rat fetal spinal cord (rat); assay: saturation radioligand binding, rat fetal spinal cord membranes, Scatchard/GraphPAD Prism
[2] = target: des-acyl ghrelin specific binding sites in membrane fractions of rat fetal spinal cord (rat); assay: competition with 0.1 nM [125I]-des-acyl ghrelin on rat fetal spinal cord membranes
[3] = test system: des-acyl ghrelin specific binding sites in the membrane fractions of fetal spinal cord; assay: Binding of [125I]-labelled des-acyl ghrelin to membrane fractions of fetal spinal cord (saturation and competition); parameters: species or system rat; settings: competition with 0.1 nM labeled des-acyl ghrelin
Experimental: For instance, the identity of a substance that acts on a des-acyl ghrelin specific binding site, namely, the identity of a substance having binding activity for a des-acyl ghrelin specific binding site can be determined, as will be described later in Example 1, by first preparing samples from a tissue of interest (e.g., membrane fractions prepared from an extracted spinal cord tissue), then incubating the sample in the presence of a test substance, with or without an added radioactive ligand such as [^125I]-labeled des-acyl ghrelin, measuring the radioactivity of the samples, and analyzing the values obtained. For analysis of the values, techniques known to skilled artisans may be employed, as exemplified by the method of Scatchard and a program such as GraphPAD Prism 4 program, which are applied to calculate the maximum number of binding sites (Bmax) and the dissociation constant (Kd). The des-acyl ghrelin specific binding sites are yet to be characterized specifically but one place of their occurrence is in rat spinal cord cells, in particular, on rat spinal cord cell membranes. […]
With [^125I]-labelled des-acyl ghrelin used as a radioactive ligand, the binding of des-acyl ghrelin to the tissue membranes of fetal spinal cord was studied. […] The radioactivity of the membranes on the filters was measured with a gamma counter. […]

[4] = test system: cultured fetal spinal neuronal cells; assay: BrdU incorporation into cultured fetal spinal neuronal cells, Cell Proliferation ELISA (Example 2); type: cell-based, rat; settings: 0.03-300 nM tested, 12 hours, then BrdU 6 hours; FIG. 2A
Experimental: • (1) Embryos were extracted from a pregnant Wistar rat at day 17 under anesthesia. Spinal cords were collected from these embryos and subjected to papain digestion in Hank's balanced salt solution; as a result of subsequent mechanical separation by pipetting, a dispersion of fetal spinal neurons was obtained. […] These dispersed cells were suspended in a DMEM medium containing NaHCO3, 5% fetal bovine serum, penicillin (100 U/mL) and streptomycin (100 µg/mL), followed by plating onto laminin-coated 96-well multi-plates at 10^5 cells per well. After incubation for 4 days, des-acyl ghrelin (0.03-300 nM) was added to the culture and incubation was conducted for 12 hours; then, 5-bromo-2'-deoxyuridine (BrdU) ([…]) was added and incubation was conducted for an additional 6 hours; then, the des-acyl ghrelin was investigated for its action on BrdU incorporation.
• (2) After the end of the above incubation, the cells were recovered and using Cell Proliferation ELISA Kit (Roche Diagnostic GmbH, Mannheim, Germany), the amount of BrdU incorporation into the fetal spinal neuronal cells was measured to investigate the action for proliferating the spinal neuronal cells.

[5] = test system: cultured fetal spinal neuronal cells; assay: BrdU positive cells by anti-BrdU immunostaining in cultured fetal spinal neuronal cells (Example 2); type: cell-based, rat; settings: compared to physiological saline, FIG. 2B, 2C
Experimental: • (1) Embryos were extracted from a pregnant Wistar rat at day 17 under anesthesia. Spinal cords were collected from these embryos and subjected to papain digestion in Hank's balanced salt solution; as a result of subsequent mechanical separation by pipetting, a dispersion of fetal spinal neurons was obtained. […] These dispersed cells were suspended in a DMEM medium containing NaHCO3, 5% fetal bovine serum, penicillin (100 U/mL) and streptomycin (100 µg/mL), followed by plating onto laminin-coated 96-well multi-plates at 10^5 cells per well. […]
• (3) After the end of the above incubation (1), the cells were fixed with methanol and glacial acetic acid, had their DNA denatured with 2 N HCl; thereafter, the BrdU incorporated into the cells was measured by detecting the BrdU positive cells using a rat anti-BrdU monoclonal antibody (1:1000, Abcam, Cambridge, UK) as a primary antibody, and also using Cy™ 3-conjugated donkey anti-rat IgG polyclonal antibody (1:1000, Jackson ImmunoResearch Laboratories, Inc., PA, USA) as a secondary antibody, in order to investigate the action for proliferating spinal cord cells. […]

[6] = test system: cultured spinal neuronal cells; assay: BrdU incorporation into cultured spinal neuronal cells, Cell Proliferation ELISA (Example 3); type: cell-based, rat; settings: for BrdU incorporation into the cells, Mean: n 6, Control = 100.0
Text: Embryos were extracted from a pregnant Wistar rat at day 16 by opening the abdomen under anesthesia. Spinal cords were collected from these embryos and subjected to papain digestion in Hank's balanced salt solution; as a result of subsequent mechanical separation by pipetting, a dispersion of fetal spinal nerve cells was obtained. After being filtered and centrifuged, the dispersed cells were suspended in a DMEM medium containing NaHCO3, 5% fetal bovine serum, penicillin (100 U/mL) and streptomycin (100 µg/mL), followed by plating onto laminin-coated 96-well multi-plates at 10^5 cells per well. After incubation for 4 days, 5-bromo-2'-deoxyuridine (BrdU) (10 µM) was added and incubation was conducted for 6 hours; further, rat des-acyl ghrelin, des-acyl ghrelin(1-5)-NH2 (GSSFL-NH2, SEQ ID NO:22), des-acyl ghrelin(1-7)-NH2 (GSSFLSP-NH2, SEQ ID NO:23) or des-acyl ghrelin(1-15)-NH2 (GSSFLSPEHQRVQQR-NH2, SEQ ID NO:24) was added in amounts of 0.03 - 3 nM and incubation was conducted for 12 hours before investigating the action of des-acyl ghrelin and its derivatives on BrdU incorporation.
After the end of incubation, the cells were recovered and using Cell Proliferation ELISA Kit (Roche Diagnostic GmbH, Mannheim, Germany), the amount of BrdU incorporation into the cells was measured to investigate the action for proliferating the spinal neuronal cells.

[7] = test system: rat models with injured spinal cord; assay: Grafting of spinal neuronal cells and local administration of des-acyl ghrelin to rat models with injured spinal cord, frequency of standing up; type: in vivo; settings: for frequency of a rat standing up per unit time: 3-minute observation
Experimental: In accordance with the procedure described in Morino, T. et al, Neuroscience Research, 2003, vol. 46, pp 309-318, the grafting of spinal neuronal cells and local administration of des-acyl ghrelin to rat models with injured spinal cord were assessed. Male SD rats (8 to 9 weeks old) were anesthetized with pentobarbital and incised in the back to expose a vertebra ([…]). After excising the vertebral arch, a dental drill was used to open a window with a diameter of […], and a stainless steel needle with a silicone rubber fixed thereto was applied vertically, followed by loading of the top with a 20-g weight. Following a compression time of 30 minutes, a damaging drop equivalent to a weight of about 100 g was finally applied from above to construct models suffering a movement disorder in the lower limbs. The animals were divided into three groups: 1) a group under sham operation; 2) a control group with injured spinal cord; and 3) a group with injured spinal cord, treated by cell grafting, and locally administered with des-acyl ghrelin. The group under sham operation received laminectomy but was simply sutured in the muscle and skin thereafter. After injuring the spinal cord, cultured spinal neuronal cells (10^5 cells/25 µL) were grafted subdurally. Rat des-acyl ghrelin was administered subdurally in an amount of 1 nmol together with the cells.
Twenty-four hours after the operation, the rats were transferred into a see-through cage and observed for the frequency of their standing up (by 3-minute observation). The principal item of observation was the frequency per unit time of the rat standing up (in such a posture that it lifted the upper limbs and supported the body weight only with the lower limbs) was counted to assess the function of its hind limbs.

In the case of “[^125I]-labelled des-acyl ghrelin (peptide)”, the Bmax (fmol/mg protein) [1] is reported as 8.79.
unlabelled des-acyl ghrelin (peptide) gave an IC50 [2] of 23.5 nM.
For Des-acyl ghrelin, the “concentrations at which the binding of the labeled des-acyl ghrelin was displaced” value [3] was ≥ 10^-3 M, the IC50 ([3]; 4 °C for an hour) was 23.5 nM and the “concentration that could increase the BrdU incorporation into the cells” value [4] was at least 3 nM. The BrdU incorporation [5] was “increased”, the “number of cells that incorporated BrdU” value [5] was “increased” and the “BrdU incorporation into the cells (in words)” value ([6]; 0.03 to 3 nM) was “increased”. For the same substance, the “BrdU incorporation into the cells, Mean” value ([6]; Concentration 0.03 nM) was 113.6, the “BrdU incorporation into the cells, Mean” value ([6]; Concentration 0.3 nM) was 112.6 and the “BrdU incorporation into the cells, Mean” value ([6]; Concentration 3 nM) was 108.2. The “frequency of a rat standing up per unit time” value ([7]; 24 hours after operation, 1 nmol subdurally together with grafted cells (10^5 cells/25 µL)) was 8.0 ± 0.0, the “frequency of a rat standing up per unit time” value ([7]; Initial (before operation)) was 15.0 ± 2.0 and the “frequency of standing up (in words)” value ([7]; combination of cell grafting and local administration, 24 hours after operation) was “recovery”.
